These results are taken from article PMC4867230 (DNA repair, 2016).

Holding throughout (assay): kinetic fluorescence endonuclease assay, purified enzyme
Common to all, as to assay type: biochemical

The target of one assay is R177A APE1 (Homo sapiens, UniProt P27695, R177A).
Assay [1] has as its target T1, apurinic/apyrimidinic endonuclease 1 (APE1) (Homo sapiens, UniProt P27695).
The target in assay [2] is T1, apurinic/apyrimidinic endonuclease 1 (APE1). The source holds these as a separate data set.

T1 sequence (P27695 whole entry): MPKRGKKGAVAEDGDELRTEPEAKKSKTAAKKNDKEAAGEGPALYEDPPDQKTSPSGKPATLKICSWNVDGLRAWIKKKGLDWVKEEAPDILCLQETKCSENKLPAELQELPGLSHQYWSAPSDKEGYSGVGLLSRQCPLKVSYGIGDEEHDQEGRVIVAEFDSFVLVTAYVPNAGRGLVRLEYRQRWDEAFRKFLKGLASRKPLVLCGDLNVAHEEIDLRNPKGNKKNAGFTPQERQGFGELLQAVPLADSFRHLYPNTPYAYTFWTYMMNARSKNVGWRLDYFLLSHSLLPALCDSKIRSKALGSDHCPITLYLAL
Chain of R177A APE1 (P27695 whole entry R177A): as the sequence (P27695 whole entry) above, with R177A counted along it

As a reminder, the EC50 is the concentration needed to bring the measured effect to its halfway point. A high value points to weaker potency. Take `O=C(NCCO[N+](=O)[O-])c1cccnc1` [nicorandil]: the values for the EC50 (at R177A APE1; in assay [1]) were 2200 nM and 820 nM, respectively.
One may read the IC50 as the point on the concentration scale where inhibition reaches its midpoint. For the molecule `O=C(NCCO)c1cccnc1` [N-(2-hydroxyethyl)nicotinamide], in assay [2], the IC50 came out at 65000 nM.
